The source of these data is patent publication US10105305B2, “Compositions and methods for promoting skin regeneration and hair growth” (THE JOHNS HOPKINS UNIVERSITY, priority 2014, dated 2018).

For data set [1] the following is noted: in solution; cited from earlier work.
Data set [2] deals with β-catenin and GLI2 promoters. As to the kind of experiment: ChIP-qPCR of STAT3 occupancy at promoters in keratinocytes. The settings on record: poly (I:C) treated keratinocytes, N=5, p<0.05. In kind it is cell-based, human. Here is the method:
Chromatin Immunoprecipitation. Poly(I:C) treated and control keratinocytes were crosslinked in 1% formaldehyde for 10 minutes, followed by addition of glycine for 5 minutes to quench unreacted formaldehyde. Cells were processed with EZ-ChIP Kit (Millipore) according to the manufacturer's instructions. Crosslinked protein-DNA complexes were captured with rabbit anti-Stat3 or normal rabbit IgG (sc-482X; sc-2027X, SCBT) antibodies. Real-time quantitative PCR was performed to determine the relative abundance of the promoter DNA sequence, associated with Stat3. Primers are detailed in Expanded Experimental Methods. Primers and graphics were designed based on ENCODE data (UCSC Genome Browser).
ChIP. The amplicon for Gli2 promoter site 4 encompasses TTCCAGGAA (SEQ ID NO:2) on chr2: 121621123-121621782 in the Encode database. It was amplified with the primer sequences: a) forward: 5 […]3′ (SEQ ID NO:3); b) reverse: 5′TCCTGTTCACATTGACGCC3′ (SEQ ID NO:4). The amplicon for β-catenin promoter site 4 encompasses TTCCTGGAA (SEQ ID NO:5) on chr3: 41264037-41264357 in the Encode database. This was amplified with the primer sequences: a) forward: 5′[…]3′ (SEQ ID NO:6); b) reverse: 5′[…]3′ (SEQ ID NO:7).

Data set [3] deals with NHEK. The data set can be described thus: Immunocytochemistry: keratinocyte morphology and beta-catenin nuclear localization. In kind it is cell-based, human. The settings on record: 72 hours after 24 hours of poly (I:C) 20 μg/mL. Here is the method: […] Fixed cells were incubated with primary antibodies overnight, appropriate Alexa Fluor secondary antibodies and counterstained using VectaShield DAPI mounting medium (Vector Labs, Burlingame, Calif.). Slides were imaged at 60× magnification using the Nikon C1si True Spectral Imaging Confocal Laser Scanning Microscope system (Cell Imaging Core Facility, Sidney Kimmel Comprehensive Cancer Center, Johns Hopkins, Baltimore, Md.). Cell morphology and beta-catenin nuclear localization were quantified using the CellProfiler image analysis software (www.cellprofiler.org) (Carpenter et al., 2006) from confocal images of nuclei.

The test system of the next data set is murine skin wounds. As to the kind of experiment: Wound induced hair neogenesis (WIHN), regenerated hair follicles counted by CSLM. It counts as in vivo, mouse. Here is the method:
Wound Induced Hair Neogenesis (WIHN). All animal protocols are approved by the Johns Hopkins University Animal Care and Use Committee. C57BL/6J, B6; 129SF2/J and TLR3 null mice (B6; 129S1-Tlr3tm1Flv/J) were obtained from The Jackson Laboratory. Mixed strain (C57BL/6J×FVB/N×SJL/J) animals were provided by Dr. Jean Richa (University of Pennsylvania).
A 1 cm2 excisional full-thickness wounds to the level of skeletal muscle on the backs of 21-day old male and female mice was performed as previously described (Ito et al., 2007; Nelson et al., 2013). Numbers of regenerated hair follicles were quantified in the re-epithelialized skin by non-invasive confocal scanning laser microscopy (CSLM) as published (Fan et al., 2011). For all experiments, […] of “intervention” was injected into healing wound (under scab) or applied topically into open wound as shown in Table 1 below.
Treatments during WIHN assay. Recombinant mouse IL-6 protein (R&D Systems, Minneapolis, Minn.) and poly(I:C) (High Molecular Weight; InVivogen, San Diego, Calif.) was diluted in sterile PBS immediately prior to injection. Cucurbitacin I (Tocris Biosciences/R&D Systems, Minneapolis Minn.) was dissolved in 10% EtOH/PBS to a final concentration of 1 mg/mL prior to injection. RNase III enzyme (Life Technologies, Grand Island N.Y.) was diluted in supplied reaction buffer

The subject of data set [4] is NHEK. As to the kind of experiment: Flow cytometry of KRT15 and vimentin in keratinocytes. In kind it is cell-based, human. An excerpt:
Flow Cytometry. Keratinocytes and fibroblasts were fixed, permeabilized (BD Cytofix/Cytoperm kit), and stained with antibodies against human vimentin (BD Pharmingen clone RV202) and KRT15 (Abam clone LHK15) labeled with a chromophore preconjugated to Fab (Zenon mouse IgG labeling kit). Data was collected on a dual-laser flow cytometer (BD FACSCalibur) followed by FlowJo 10 (TreeStar) software analysis.

Data set [5] concerns neo-natal human epidermal keratinocytes (NHEK). The data set can be described thus: qRT-PCR gene expression in cultured keratinocytes (NHEK). In kind it is cell-based. As to the method:
Cell Culture. Neo-natal human epidermal keratinocytes (Lonza, Walkersville, Md.) or lab-isolated foreskin keratinocytes were cultured in keratinocyte medium with added supplements (KGMGOLD). Treatment with recombinant IL-6 protein (50 ng/mL), cucurbitacin I (10-100 nM), poly (I:C) (20 μg/mL) and TLR3 pharmacological inhibitor (80 μM; EMD Millipore, Billerica, Mass.) was applied in basal medium containing transferrin, hydrocortisone and antibiotics for up to 24 hours. After 24 hours, treatment medium was replaced with KGM-GOLD and isolation of RNA as indicated.
Nucleofection. Nucleofection with siGENOME SMARTpoo1 Human Tap63, TLR3, REL-A and siCONTROL siRNA duplex oligonucleotides (Dharmacon-ThermoFischer Scientific) was performed in NHEK using the Amaxa 4D-Nucleofector according to manufacturer's instruction. Plated cells were treated with recombinant human IL-6 (50 ng/mL) protein or poly(I:C) (20 μg/mL) for 24 hours. Afterwards, treatment medium was removed and replaced with KGMGOLD complete medium for the duration of the experiment. Levels of appropriate gene expression were assessed by qRT-PCR using inventoried TaqMan reagents in three independent experiments.
Quantitative Real-Time PCR (qRT-PCR). Mouse skin was harvested prior to wounding and throughout wounding as described (Nelson et al., 2013). RNA was isolated from NHEK with RNeasy Mini Kit (Qiagen, Valencia, Calif.) with DNase I digestion. qRT-PCR was performed for genes of interest and 18S or ribosomal protein, large PO (RPLP0) (housekeeping genes) using inventoried TaqMan reagents. Differences in gene expression were assessed by comparative ΔΔCT values with fold change calculations.

Data set [6] relates to normal nonwounded murine skin. As to the kind of experiment: Hair cycle in non-wounded murine skin after injection during telogen. It counts as in vivo. The settings on record: poly (I:C) 200 ng/mouse injected during telogen.
The mark [7] stands for this setting: 72 hours after 24 hours of poly (I:C) 20 μg/mL, NHEK.
The mark [8] stands for this setting: poly (I:C) 20 μg/mL treatment, NHEK.
[9] abbreviates: poly (I:C) 20 μg/mL, NHEK, 24 hours.

“Also recorded” adds a separate entry of the source.

As to “LL-37: 37 amino acid cathelicidin peptide, SEQ ID NO:1, residues 134-170 of hCAP18”, the “resistance to proteolytic degradation” value in data set [1] is reported as “significantly resistant to proteolytic degradation in solution”.
Turning to “Polyinosinic:polycytidylic acid [poly (I:C)]”, in data set [2], the “STAT3 occupation of GLI2 promoter” value was “significant increase” and the “STAT3 occupation of β-catenin promoter” value is “significant increase”. Besides, in the data set on NHEK [3], the “amount of nuclear β-catenin” value was “doubled”; the keratinocyte length-width ratio entry is reported as “near doubling”; the keratinocyte morphology result is on record as “long, spindle-like morphology”. In addition, the “stimulatory effect on WIHN in TLR3 null mice” value in the data set with murine skin wounds (TLR3 KO mice, poly (I:C) 200 ng vs PBS, CSLM) is “abrogated”. Besides, the “number of regenerated follicles (WIHN)” value with murine skin wounds (wt mice, single poly (I:C) 200 ng injected into wound at WD3 vs PBS, CSLM ~WD20-24) is reported as “greater number of regenerated follicles”. In addition, the “percentage of KRT15 expressing cells by FACS” value in the data set on NHEK [4] (setting [7]) is given as “nearly doubled”. Further, in the data set with NHEK [4] (poly (I:C) treated NHEK vs control keratinocytes and fibroblasts), the “vimentin protein expression by flow cytometry” value was “intermediate between that of control keratinocytes and fibroblasts”. For the same substance, the “KRT15 mRNA expression” value in data set [5] (setting [7]) was “significantly increased”. The “vimentin (VIM) mRNA expression” value in data set [5] (following poly (I:C) 20 μg/mL for 24 hours, indicated time points, NHEK) is “continued to increase in a time-dependent fashion”. Moreover, in data set [5] (setting [8]), the EDAR expression result is on record as “increased”, the GLI1 expression result is reported as “increased”, the LEF1 expression entry is on record as “up-regulated” and the SHH expression entry is on record as “increased”. Besides, in data set [5] (poly (I:C) 20 μg/mL, NHEK, 6 hours), the “induction of IL-6 mRNA” value was “greater than 30 fold”. In addition, in data set [5] (setting [9]), the CBX4 expression result is “increase”, the KRT1 expression result is listed as “nearly complete loss” and the “filaggrin (FLG) expression” value is recorded as “nearly complete loss”. In addition, the E-cadherin epithelial marker entry in data set [5] (same conditions as vimentin, poly (I:C) treated NHEK) is “not reduced”. The “effect on hair cycle (anagen activation) in nonwounded skin” value in data set [6] is “does not affect the hair cycle; also recorded: no activation of anagen”.
